In ChEMBL document CHEMBL2074110, “Characterization, cDNA cloning, and functional expression of mouse ileal sodium-dependent bile acid transporter” (J Biochem, 1999):
Each block holds one compound with its values, some of them ahead of it.

Experiments:
Type in all cases: functional, cell-based
Conditions in all cases: ileocyte
[1] = molecular target: T1, Ileal sodium/bile acid cotransporter (Mus musculus, UniProt P70172); assay: TP_TRANSPORTER: inhibition of Taurocholate uptake (Taurocholate: 0.72 uM, CDCA: a 100-fold excess) in isolated mouse ileocytes
T1 sequence (P70172 whole entry): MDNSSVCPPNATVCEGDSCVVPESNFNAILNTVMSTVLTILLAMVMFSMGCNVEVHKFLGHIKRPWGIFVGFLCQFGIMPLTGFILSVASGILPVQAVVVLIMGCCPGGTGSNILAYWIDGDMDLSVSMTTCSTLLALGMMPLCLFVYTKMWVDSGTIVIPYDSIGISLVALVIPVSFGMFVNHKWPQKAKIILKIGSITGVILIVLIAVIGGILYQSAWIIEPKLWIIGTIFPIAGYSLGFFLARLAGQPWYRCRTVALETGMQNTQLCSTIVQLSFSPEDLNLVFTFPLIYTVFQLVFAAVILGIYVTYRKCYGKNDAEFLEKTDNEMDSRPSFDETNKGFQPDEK

[2] = molecular target: T1, Ileal sodium/bile acid cotransporter; assay: TP_TRANSPORTER: inhibition of Taurocholate uptake (Taurocholate: 0.72 uM, Deoxycholate: a 100-fold excess) in isolated mouse ileocytes
[3] = molecular target: T1, Ileal sodium/bile acid cotransporter; assay: TP_TRANSPORTER: inhibition of Taurocholate uptake (Taurocholate: 0.72 uM, GC: a 100-fold excess) in isolated mouse ileocytes
[4] = molecular target: T1, Ileal sodium/bile acid cotransporter; assay: TP_TRANSPORTER: inhibition of Taurocholate uptake (Taurocholate: 0.72 uM, Lithocholate: a 100-fold excess) in isolated mouse ileocytes

SMILES: C[C@H](CCC(=O)O)[C@H]1CC[C@H]2[C@@H]3[C@H](O)C[C@@H]4C[C@H](O)CC[C@]4(C)[C@H]3CC[C@]12C [CHENODIOL]
Activity [1]: inhibitor [+]

Activity [2]: inhibitor [+]
SMILES: C[C@H](CCC(=O)O)[C@H]1CC[C@H]2[C@@H]3CC[C@@H]4C[C@H](O)CC[C@]4(C)[C@H]3C[C@H](O)[C@]12C [DEOXYCHOLIC ACID]

Activity [3]: inhibitor [+]
SMILES: C[C@H](CCC(=O)NCC(=O)O)[C@H]1CC[C@H]2[C@@H]3[C@H](O)C[C@@H]4C[C@H](O)CC[C@]4(C)[C@H]3C[C@H](O)[C@]12C [GLYCOCHOLIC ACID]

SMILES: C[C@H](CCC(=O)O)[C@H]1CC[C@H]2[C@@H]3CC[C@@H]4C[C@H](O)CC[C@]4(C)[C@H]3CC[C@]12C [LITHOCHOLIC ACID]
Activity [4]: inhibitor [+]
